Compound: C1CN(CCC1C(C2=CC3=C(C=C2)OCO3)(C4=CC5=C(C=C4)OCO5)O)C(=O)OC6=CC=C(C=C6)[N+](=O)[O-] [JZL-184] + CC(=O)c1c(C)c2cnc(Nc3ccc(N4CCNCC4)cn3)nc2n(C2CCCC2)c1=O [Palbociclib] (partner 0.5 µM)
Experiment: relative viability (nuclei count vs DMSO), 5 days (fraction); higher = more cells survive
Summary of the method: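 After 5 days of treatment, lung cancer cells in 1536-well plates were fixed and stained in a single step (final 0.05% Triton X-100, 1% formaldehyde, 1 ug/ml Hoechst) and their nuclei counted on 4× images. Treatment had been applied by pin tool the day after seeding as one drug alone or as a fixed anchor-drug dose with five library-drug doses (not always all listed) in √10 steps. Relative viability is the nuclei count of treated wells divided by that of vehicle wells, and values are medians of duplicate plates.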

Row | Cell Line | relative viability (first compound 0.04 µM) | relative viability (first compound 0.4 µM) | relative viability (first compound 1.265 µM) | relative viability (first compound 4 µM)
1 | EMC-BAC-2 | 0.584 | 0.458 | 0.508 | 0.512
2 | NCI-H661 | 0.408 | 0.378 | 0.399 | 0.403
3 | LU99A | 0.455 | 0.36 | 0.471 | 0.42
4 | LK-2 | 0.817 | 0.514 | 0.795 | 0.887
5 | NCI-H3122 | 0.168 | 0.181 | 0.22 | 0.208
6 | NCI-H2347 | – | 0.398 | 0.407 | 0.443
7 | HCC-827 | 0.52 | 0.441 | 0.555 | 0.48
8 | NCI-H1666 | 0.685 | 0.642 | 0.636 | 0.668
9 | NCI-H358 | 0.138 | 0.142 | 0.137 | 0.129
10 | 201T | 0.383 | 0.339 | 0.373 | 0.344
11 | PC-3 [JPC-3] | 0.573 | 0.558 | 0.485 | 0.536
12 | NCI-H2405 | 0.594 | 0.409 | 0.541 | 0.489
13 | LXF-289 | 0.693 | 0.564 | 0.572 | 0.595
14 | EKVX | 0.436 | 0.331 | 0.323 | 0.371
15 | A-427 | 0.588 | 0.515 | 0.518 | 0.536
16 | ChaGo-K-1 | 1 | 0.933 | 0.975 | 0.951
17 | NCI-H2342 | 0.563 | 0.535 | 0.522 | 0.529
18 | SK-MES-1 | 0.372 | 0.311 | 0.316 | 0.297
19 | LCLC-97TM1 | 0.283 | 0.195 | 0.255 | 0.274
20 | NCI-H2170 | 0.439 | 0.37 | 0.407 | 0.366
21 | NCI-H1993 | 0.707 | 0.604 | 0.758 | 0.604
22 | NCI-H460 | 0.147 | 0.0967 | 0.149 | 0.201
23 | NCI-H1975 | 0.679 | 0.579 | 0.614 | 0.575
24 | RERF-LC-KJ | 1.17 | 1.14 | 1.17 | 0.982

Row | Cell Line | relative viability (first compound 0.04 µM) | relative viability (first compound 0.4 µM) | relative viability (first compound 1.265 µM) | relative viability (first compound 4 µM)
25 | NCI-H322M | 0.483 | 0.449 | 0.509 | 0.451
26 | NCI-H1651 | 0.547 | 0.529 | 0.558 | 0.519
27 | HARA | 0.25 | 0.204 | 0.273 | 0.238
28 | H3255 | 0.353 | 0.322 | 0.343 | 0.323
29 | NCI-H441 | 0.207 | 0.229 | 0.238 | 0.236
30 | CAL-12T | 0.692 | 0.314 | 0.508 | 0.576
31 | ABC-1 | 0.861 | 0.641 | 0.399 | 0.696
32 | NCI-H1792 | 0.677 | 0.687 | 0.659 | 0.656
33 | NCI-H1437 | 0.333 | 0.321 | 0.297 | 0.282
34 | HOP-62 | 0.481 | 0.374 | 0.453 | 0.455
35 | EPLC-272H | 0.331 | 0.314 | 0.326 | 0.297
36 | COR-L 105 | 0.464 | 0.376 | 0.371 | 0.409
37 | HCC-366 | 0.426 | 0.374 | 0.394 | 0.322
38 | HCC-44 | 0.965 | 0.967 | 1.03 | 0.981
39 | NCI-H2009 | 0.172 | 0.188 | 0.241 | 0.219
40 | NCI-H23 | 0.594 | – | 0.484 | 0.486
41 | NCI-H727 | 0.64 | 0.708 | 0.63 | 0.738
42 | NCI-H1355 | 0.376 | 0.381 | 0.423 | 0.4
43 | NCI-H1944 | 0.338 | 0.289 | 0.347 | 0.328
44 | NCI-H2023 | 0.56 | 0.354 | 0.393 | 0.249
45 | NCI-H1650 | 0.395 | 0.368 | 0.408 | 0.302
46 | NCI-H1395 | 0.661 | 0.598 | 0.63 | 0.573
47 | NCI-H2087 | 0.231 | 0.215 | 0.259 | 0.227
48 | NCI-H838 | 0.22 | 0.259 | 0.235 | 0.199

Row | Cell Line | relative viability (first compound 0.04 µM) | relative viability (first compound 0.4 µM) | relative viability (first compound 1.265 µM) | relative viability (first compound 4 µM)
49 | NCI-H1793 | 0.271 | 0.285 | 0.281 | 0.312
50 | LC-2-ad | 0.579 | 0.504 | 0.488 | 0.484
51 | HCC-78 | 0.425 | 0.425 | 0.452 | 0.471
52 | NCI-H522 | 1.23 | 0.936 | 1.13 | 0.903
53 | LOU-NH91 | 0.524 | 0.509 | 0.558 | 0.448
54 | NCI-H1734 | 0.394 | 0.293 | 0.37 | 0.292
55 | NCI-H520 | 0.189 | 0.221 | 0.223 | 0.219
56 | UMC-11 | 0.327 | 0.339 | 0.366 | 0.35
57 | NCI-H1755 | 0.44 | 0.451 | 0.473 | 0.452
58 | SK-LU-1 | 0.387 | 0.393 | 0.433 | 0.405
59 | NCI-H647 | 0.369 | 0.285 | 0.407 | 0.359
60 | SW 1573 | 0.458 | 0.328 | 0.45 | 0.383
61 | HCC-15 | 0.732 | 0.77 | 0.71 | 0.698
62 | NCI-H2126 | 0.329 | 0.357 | 0.359 | 0.345
63 | NCI-H2085 | – | 0.489 | 0.44 | 0.469
64 | SW 900 | 0.548 | 0.513 | 0.558 | 0.521
65 | BEN | 0.457 | 0.46 | 0.445 | 0.491
66 | NCI-H650 | 0.358 | 0.292 | 0.321 | 0.317
67 | LCLC-103H | 0.438 | 0.213 | 0.502 | 0.511
68 | PC-14 | 0.659 | 0.49 | 0.517 | 0.519
69 | NCI-H2228 | 0.947 | 0.511 | 0.842 | 0.768
70 | COR-L23 | 0.337 | 0.234 | 0.287 | 0.273
71 | NCI-H1915 | 0.506 | 0.511 | 0.531 | 0.511

Source: the supplement of paper PMC10307832
